Laboratory results taken from US20110015191A1, “ORGANIC COMPOUNDS” (SANDOZ AG, priority 2007, published 2011).
In brackets after ≈: the same amount, converted by molar mass.

Columns and labels:
[1] = Conversion of the methanol solvate on drying; type: physicochemical
Description: In another embodiment the invention relates to a novel methanol solvate of Aprepitant. The methanol solvate is useful for the purification of Aprepitant.

[2] = cited from earlier work
[3] = heated to 230° C. under a nitrogen atmosphere; cited from earlier work

With CO.C[C@@H](O[C@H]1OCCN(Cc2nc(=O)[nH][nH]2)[C@H]1c1ccc(F)cc1)c1cc(C(F)(F)F)cc(C(F)(F)F)c1 [methanol solvate, Methanol solvate of 2-(R)-(1-(R)-(3,5)-bis(trifluoromethyl)-phenyl)ethoxy)-3-(S)-(4-fluoro)phenyl-4-(3-(5-oxo-1H,4H-1,2,4-triazolo)methylmorpholine] the “conversion of solid form on drying” value [1] was “converts to form I of Aprepitant on drying”.

In the case of C[C@@H](O[C@H]1OCCN(Cc2nc(=O)[nH][nH]2)[C@H]1c1ccc(F)cc1)c1cc(C(F)(F)F)cc(C(F)(F)F)c1 [Form II of Aprepitant, 2-(R)-(1-(R)-(3,5)-bis(trifluoromethyl)-phenyl)ethoxy)-3-(S)-(4-fluoro)phenyl-4-(3-(5-oxo-1H,4H-1,2,4-triazolo)methylmorpholine], the “solubility in a methanol/water mixture (2:1)” value [2] is listed as “about 1.3±0.2 mg/ml” and the “conversion of polymorphic form on heating” value [3] is listed as “converts to form I”.

For C[C@@H](O[C@H]1OCCN(Cc2nc(=O)[nH][nH]2)[C@H]1c1ccc(F)cc1)c1cc(C(F)(F)F)cc(C(F)(F)F)c1 [form I, 2-(R)-(1-(R)-(3,5)-bis(trifluoromethyl)-phenyl)ethoxy)-3-(S)-(4-fluoro)phenyl-4-(3-(5-oxo-1H,4H-1,2,4-triazolo)methylmorpholine], the “solubility in a methanol/water mixture (2:1)” value [2] is given as 900 ± 100 µg/mL (≈ 1680 µM).
